According to patent US20150023877A1, “METHODS OF PARKINSONS DISEASE DIAGNOSIS AND MONITORING TREATMENT” (The Board of Trustees of the Leland Stanford Junior …, priority 2013, published 2015):
“And” between values parts separate entries of the source, which are not always exact repeats. Equal values may be shown once. Read-outs that look alike come from different tables or passages of the source.

Columns and labels:
[1] = tested on: implantation site (striatum); conditions: cited from earlier work
[2] = tested on: pRPE cells; experiment: Melanin quantification analysis in pRPE cells; assay type: cell-based, porcine; conditions: 2 mM L-tyrosine pre-treatment; from 14.34±0.48 untreated
Description: In vitro measurement of melanin content was performed for pRPE and ARPE-19 cells in parallel with the ^18F-P3BZA cell uptake assay according to methods reported previously with slight modifications^35. The cells were harvested after pretreatment with or without 2 mM L-tyrosine for 24 h and washed with PBS, then they were incubated overnight in 500 μL of 1 N NaOH at room temperature. The solution was pipetted repeatedly to homogenize the extracts. The concentration of total protein was determined using a microBCA protein assay kit (Pierce Biotechnology) and then the concentration of samples was adjusted to 0.4 μg/μL. Extracts (100 μL) were added into 96-well plates in triplicate. The relative melanin content of samples was determined by measuring their absorbance at 405 nm using a plate reader (TECAN, Research Triangle Park, N.C.). Results were expressed as absorbance of 405 nm per mg protein (A 405 nm/mg protein).

[3] = Dynamic PET imaging in normal rat brain; assay type: in vivo
Description: (§1) Small animal PET/CT imaging was performed on a Siemens Inveon small-animal multimodality PET/CT system (Preclinical Solutions; Siemens Healthcare Molecular Imaging, Knoxville, Tenn.). For each rat, ^18F-P3BZA (7.4 MBq, 200 μCi) was administrated through tail vein.
To assess the in vivo kinetics of ^18F-P3BZA in normal rat brain, dynamic PET imaging (10×1 minute, 10×2 minute, 2×5 minute, 3×10 minute; total of 25 frames) was initiated immediately after administration of the probe and terminated 70 minute later on normal rats (n=4).
CT scan (632 slices at 206 μm) was performed immediately after PET imaging for both photon attenuation correction and image co-registration with PET image data for anatomical information. PET Images were reconstructed with a 2-dimensional ordered-subsets expectation maximization algorithm (OSEM 2D). ROIs were drawn in bilateral striatum using the Inveon Research Workspace software. The average radioactivity concentration in the ROIs was obtained from the mean pixel values within the ROIs volume. […] The results were then divided by the injected dose to obtain an image ROI-derived % ID/g, and the TAC was then calculated and obtained.

[4] = tested on: pRPE-GMs; experiment: Longitudinal PET/CT after implantation of pRPE-GMs; assay type: in vivo, rat
Description: as §1
To evaluate the potential of ^18F-P3BZA for monitoring the survival and function of RPE cells implanted, longitudinal PET/CT scans were acquired at day 2, 9 and 16 after cell implantation of pRPE-GMs in the left and GMs as control in right striatum in normal rats (n=12). PET/CT imaging started at 1 h after tail vein injection of ^18F-P3BZA Immediately after PET/CT scan at each time point (day 2, 9 and 16), four rats were sacrificed and the brain slices were prepared for immunohistochemistry and Fontana-Masson staining.

[5] = tested on: pRPE cells; experiment: In vitro cell uptake of ^18F-P3BZA in pRPE cells; assay type: cell-based; conditions: for uptake of ^18F-P3BZA in pRPE cells: without L-tyrosine
Description: (§2) pRPE (generation 3, 5×10^5) or control ARPE-19 cells were plated in a 12-well plate pretreated with or without L-tyrosine (2 mM) for 24 h. They were incubated with 74 kBq (2 μCi)/well of ^18F-P3BZA at 37° C. for 15, 30, 60, and 120 minute. The cells were washed three times with chilled PBS and lysed with 500 μL of 0.1 M NaOH. The cell lysates were then collected and the radioactivity of the lysates was measured with a γ counter (Perkin-Elmer, MA, USA). The cell uptake was expressed as the percentage of total applied radioactivity. All experiments were performed with triplicate samples. Similarly, uptake of ^18F-P3BZA at 30 minute incubation was determined in pRPE cells at different passages (pRPE-P3, pRPE-P5 and pRPE-P8) and control ARPE19 cells, with or without L-tyrosine pretreatment.

[6] = tested on: MCF-7-TYR; conditions: cited from earlier work
[7] = tested on: gelatin microcarrier-bound pRPE cells (pRPE-GMs); experiment: Static PET/CT of intrastriatal implanted pRPE-GMs, 2 days after implantation; assay type: in vivo, rat
Description: (§3) Female Wistar rats (Charles Rivers Laboratory, Wilmington, Mass., USA) weighing 176-200 g were used in this study. All animal work was conducted in accordance with the Administrative Panel on Laboratory Animal Care at Stanford University. The implantation procedure was performed following the surgical procedures described in a previous report^36. Animals were anesthetized using isofluorane and were implanted at left striatum with RPE-GMs using the following (flat-skull) coordinates: anterior posterior (AP) −0.4; medial lateral (ML) ±3.5; dorsal ventral (DV) −5.0. The control GMs-alone were implanted on the contralateral side of the striatum and performed using the same procedure. Before the implantation procedure, solutions contained RPE cells (melanotic pRPE or amelanotic ARPE-19, 12,000˜15,000 cells in 10 μL) were drawn into a sterile 50 μL Hamilton syringe (Hamilton Company, Reno, Nev.).
(§4) Small animal PET/CT imaging was performed on a Siemens Inveon small-animal multimodality PET/CT system (Preclinical Solutions; Siemens Healthcare Molecular Imaging, Knoxville, Tenn.). For each rat, ^18F-P3BZA (7.4 MBq, 200 μCi) was administrated through tail vein. […]

[8] = tested on: gelatin microcarrier-bound pRPE cells; experiment: Ex vivo autoradiography of rat brain sections; assay type: in vivo; conditions: after static PET/CT
Excerpt: The sacrificed rat brains were removed and embedded in optimum cutting temperature (O.C.T.) compound (Tissue-Tek, Sakura, USA). Subsequently, thick axial blocks (12 μm) were cut using a cryostat microtome HM500 (Microm, HM 500 M, Heidelberg, Germany). The sections were mounted on microscope slides (Fisherbrand Superfrost Plus microscope slides, Fisherbrand Superfrost Plus Microscope Slides, Vernon Hills, Ill., USA). The representative coronal sections through the striatum (including visible injection sites) were used for autoradiography immediately or preserved in −80° C. for other postmortem analysis.
After static PET/CT imaging, frozen brain sections were prepared immediately for autoradiography. The sections were air-dried for 10 minute, and then exposed to a radioactivity sensitive storage phosphor screen (Perkin-Elmer, USA) for 24 h at 4° C. The imaging plates were analyzed using a Typhoon 9410 variable mode imager (Amersham Biosciences, Salt Lake City, Utah, USA), and the image data were visualized and processed by Image J (image processing and analysis software in Java).

[9] = tested on: MCF-7 cells; conditions: cited from earlier work
[10] = tested on: ARPE-19 cells; experiment: In vitro cell uptake of ^18F-P3BZA in control ARPE-19 cells; assay type: cell-based, human
Description: as §2

[11] = tested on: gelatin microcarrier-bound ARPE-19 cells (ARPE-19-GMs); experiment: Static PET/CT of intrastriatal implanted ARPE-19-GMs, 2 days after implantation; assay type: in vivo, rat
Description: as §3, §4

[12] = tested on: B16F10; conditions: cited from earlier work
[13] = after implantation of the RPE cells
[14] = before implantation of the RPE cells

For `CCN1CCC[C@H]1CNC(=O)c1c(O)c(Cl)cc(Cl)c1O[11CH3]` (racemic) [^11C-raclopride], the “implantation site (striatum) to cortex uptake ratio” value [1, 13] is given as 2.44±0.67 and the “implantation site (striatum) to cortex uptake ratio” value [1, 14] is given as 2.41±0.74.
In the case of `N[C@@H](Cc1ccc(O)cc1)C(=O)O` [L-tyrosine], the “melanin content in pRPE cells (P3)” value [2] is reported as 21.34±1.73 A 405 per mg protein.
For `CCN(CC)CCNC(=O)c1ccc([18F])cn1` [^18F-P3BZA, N-(2-(diethylamino)ethyl)-^18F-5-fluoropicolinamide], the “uptake in rat brain” value ([3]; 2 min after injection (peak)) was 7.61±0.30 % ID/g, the “uptake in rat brain” value ([3]; 28 min after injection) was 3.54±0.21 % ID/g and the “uptake in rat brain” value ([3]; 60 min after injection) was 1.04±0.37 % ID/g. The blood-brain barrier passage ([3]; PET images, normal rat) was “could rapidly cross the blood-brain barrier”, the “uptake in pRPE-GMs” value ([4]; 2 days post-implantation) was 3.39±0.18 % ID/g and the “uptake in pRPE-GMs” value ([4]; 9 days post-implantation) was 2.49±0.41 % ID/g. The “uptake in pRPE-GMs” value ([4]; 16 days post-implantation) was 1.20±0.13 % ID/g, the “uptake of ^18F-P3BZA in L-tyrosine treated pRPE cells” value ([5]; 2 mM L-tyrosine pre-treatment, 30 minute incubation) was 39.07±1.65% and the “uptake of ^18F-P3BZA in pRPE cells” value ([5]; 60 minutes incubation) was 9.09%±0.31 % of applied activity. The “uptake of ^18F-P3BZA in pRPE cells” value ([5]; 120 minutes incubation) was 8.61%±0.47 % of applied activity, the “fold uptake in passage 3 pRPE cells vs control amelanotic ARPE-19 cells” value ([5]; in vitro) was 9 fold and the “increase in uptake in pRPE cells after tyrosine treatment vs nontreatment groups” value ([5]; multiple time points, FIG. 2A) was “three- to fourfold higher”. For the same compound, the “uptake of ^18F-P3BZA in pRPE cells” value ([5]; pRPE passage 3, 30 minutes incubation) was 10.72±0.38 % of applied activity and 10.72%±0.38 % of applied activity and 10.71%±0.38 % of applied activity, the “increase of uptake after tyrosine treatment” value (from here on “increase of uptake”) ([5]; pRPE-P3) was 48.8% and the “decreasing rate of cell uptake per passage” value ([5]; pRPE-P3, P5, P8) was −1.45 % of applied activity per passage. The “increase of uptake” value ([5]; pRPE-P5) was 37.8%, the “increase of uptake” value ([5]; pRPE-P8) was 31.9% and the “uptake of ^18F-P3BZA in pRPE-P5 cells” value ([5]; passage 5, 30 minute incubation) was 6.25%±0.59 % of applied activity. The “uptake of ^18F-P3BZA in pRPE-P8 cells” value ([5]; passage 8, 30 minute incubation) was 3.29%±0.15 % of applied activity, the cell uptake ([6]; 0.5 h incubation) was 5.57±0.31% and the cell uptake ([6]; 1 h incubation) was 7.14±0.18%. The “pRPE-GMs to adjacent normal striatum uptake ratio” value [7] was 3.19±0.53, the “pRPE-GMs to control gelatin microcarriers uptake ratio” value [7] was 3.05±0.57 and the “autoradiography signal of pRPE-GMs transplant site vs ARPE-19-GMs or GMs alone sites” value [8] was “significantly higher”. The cell uptake ([9]; 0.5 h incubation) was 0.25±0.05%, the cell uptake ([9]; 1 h incubation) was 0.32±0.07% and the “uptake in control ARPE-19 cells at each time point” value ([10]; 15, 30, 60, 120 minutes) was “remained low”. The “uptake of ^18F-P3BZA in control ARPE-19 cells” value ([10]; 30 minute incubation) was 1.31%±0.15 % of applied activity, the “uptake in ARPE-19 cells before and after tyrosine treatment” value ([10]; with vs without L-tyrosine) was “no difference” and the “ARPE-19-GMs to gelatin microcarriers uptake ratio” value [11] was 1.21±0.36. The cell uptake ([12]; 0.5 h incubation) was 6.85±0.08% and the cell uptake ([12]; 1 h incubation) was 8.55±0.24%.
In the case of `N[C@@H](Cc1cc(O)c(O)cc1[18F])C(=O)O` [^18F-fluoro-L-DOPA], the “implantation site (striatum) to cortex uptake ratio” value [1, 13] is given as 1.48±0.07 and the “implantation site (striatum) to cortex uptake ratio” value [1, 14] is given as 1.35±0.10.
